Laboratory results: US5693677A, “Ceramide 3 derivatives based on monounsaturated fatty acids” (Gist-brocades N.V., priority 1994, dated 1997)
In brackets after ≈: the same amount, converted by molar mass.

Assays:
[1] = Thermo-gravimetric analysis (TG/DTA) of ceramides, oxidation stability; format: physicochemical; conditions: 5° C./min; for Stability in thermo-gravimetric analysis: 25° to 180° C., oxygen (100 ml/min), in words
Description: Thermo-gravimetry (TG) and Differential Thermo-gravimetric Analysis (DTA) were carried out using the SSC 5200 system of Seiko, provided with the TG/DTA furnaces. Standard procedures were used to obtain the desired data.
Atmosphere oxygen (100 ml/min)
Reference empty, open Pt pan
Sample size ± 5 mg powder
Sample container open Pt pan

[2] = Solubility of ceramide 3 derivatives in emollients (visual inspection, maximum concentration before cloudiness); format: physicochemical; conditions: for solubility: organic solvent or mixture
Description: The compound produced in Example 1, N-oleoyl phytosphingosine (also called Ceramide IIIB) was tested by solubilisation in isocetyl alcohol (Eutanol™ G16, Henkel), isostearic acid (Emersol, Henkel), triglycerides (Myritolo 318, J. Dekker), wallnut oil (J. Dekker) and avocado oil (J. Dekker).
Increasing amounts of the compound were added to the solvent and stirred under nitrogen for 30 minutes at 45° C. After cooling to room temperature (22° C.±2° C.) the solutions were kept in the dark. After 1, 24 and 48 hours the solutions were visually inspected. The maximum concentration was determined before the solution turned cloudy, indicating the presence of insoluble crystals.
The solubility of a saturated ceramide 3 derivative, N-stearoylphytosphingosine, was also determined.

SDS-damaged skin [3] = assay: Effects of ceramide IIIB formulations on SDS-damaged skin, trans-epidermal water loss (TEWL); format: in vivo, human (female volunteers); conditions: 0.2 and 0.5% Ceramide IIIB
Description: (§1) Measurements of trans-epidermal water loss (TEWL) were performed with the Tewameter (Courage & Khazaka, Cologne, Germany). The Tewameter is a device for measurement of water evaporation on skin surfaces based on the diffusion principle discovered by A. Fick in 1885.
(§2) after damaging the skin with SDS
(§3) 1 hour after last application on days 3, 7, 14
(§4) Five female volunteers at the age of 22-43 years with healthy skin were included in the test.
(§5) Measurements were carried out at a temperature of 22°±1° C. and a relative humidity of 60±10%. Subjects were accustomed to ambient conditions for 20 min prior to any measurement. The test was carried out on the volar forearms. The skin of the forearms was treated with a 5% aqueous solution of sodium lauryl sulphate (SDS) and an occlusive dressing applied. The dressing was removed 2 h later, and the regions gently washed with water and air-dried. After 30 min the measurements were done. Then the three test products were applied, one area remained untreated. The dose of application was about 2 mg/cm^2. In the following 14 days a home application in the morning and evening took place.
Measurements were evaluated during the treatment period on day 3, 7 and 14 one hour after the last daily application. Use of other cosmetic products was restricted on the test areas throughout the whole study.

skin (SDS-challenge) = assay: Protective effects of ceramide IIIB formulations against SDS-challenge, TEWL; format: in vivo, human (female volunteers); conditions: pretreatment, in words (TEWL and skin colour)
Description: as §1
before start of treatment;
two hours after last application on day 7;
2 hours after irritation with SDS (2 h under occlusion).
Two panels of each five female volunteers at the age of 19-55 years with healthy skin were included in the test.
Measurements were carried out at a temperature of 22°±1° C. and a relative humidity of 60±10%. Subjects were accustomed to ambient conditions for 20 min prior to any measurement. The test was carried out on the volar forearms. Initially untreated skin was measured in all four areas to find baseline values. Then the three test products were applied, one area remained untreated. The dose of application was about 2 mg/cm^2. In the following 7 days a home application in the morning and evening took place. Measurements were evaluated during the treatment period on day 7 two hours after the last daily application. […]
The results of TEWL and skin colour measurements are presented in respectively FIGS. 5 and 6. Values are expressed as (Valueday7 -Valueday0)/Valueday0 ×100%.

SDS-damaged skin [4] = assay: Effects of ceramide IIIB formulations on SDS-damaged skin, skin humidity (corneometry); format: in vivo, human (female volunteers); conditions: skin pretreated with a surfactant (SDS), topical
Description: The corneometer CM 820 PC (Courage and Khazaka, Cologne, Germany) registers the electrical capacitance of the skin surface, which is a measure of the degree of moisture on the skin's surface. The capacitance is expressed digitally in arbitrary units (a.u.). Three measurements were performed on each test area and the mean was used to define hydration state of the stratum corneum.
as §2, §3, §4, §5
Measurements were evaluated during the treatment period on day 3, 7 and 14 one hour after the last daily application. […]

Row | SMILES | Stability in thermo-gravimetric analysis [1] | solubility ([2]; avocado oil) [µg/mL] | solubility ([2]; emersol (isostearic acid)) [µg/mL] | solubility ([2]; eutanol g16 (isocetyl alcohol)) [µg/mL] | solubility ([2]; myritol 318 (triglycerides)) [µg/mL] | solubility ([2]; wallnut oil) [µg/mL] | TEWL dose-response (SDS-damaged skin [3]) | Solubility compared with saturated analogue ([2]; emollients, in words) | Protection from SDS-induced skin damage (skin (SDS-challenge)) | Recovery of diminished water-retaining properties of skin (SDS-damaged skin [4]) | Temperature at which weight increase (oxidation) followed by decomposition starts ([1]; oxygen)
1 | CCCCCCCCCCCCCCCCCC(=O)N[C@@H](CO)[C@H](O)[C@H](O)CCCCCCCCCCCCCC [Ceramide III, N-stearoylphytosphingosine, reference compound] | most stable compound as is illustrated by the absence of change of weight | 50 (≈ 85.6 µM) | 600 (≈ 1030 µM) | 1600 (≈ 2740 µM) | 50 (≈ 85.6 µM) | 50 (≈ 85.6 µM) | – | – | – | – | –
2 | CCCCCCCC/C=C\CCCCCCCC(=O)N[C@@H](CO)[C@H](O)[C@H](O)CCCCCCCCCCCCCC [Ceramide IIIB, N-oleoylphytosphingosine] | behaviour similar to ceramide 3, although showing a steadily increasing baseline, probably due to hydration. However, no sudden increase in weight followed by decomposition is observed | < 200 | 8000 (≈ 13700 µM) | 12000 (≈ 20600 µM) | 800 (≈ 1370 µM) | 200 (≈ 344 µM) | a clear dose-response effect | solubilizes much better than its saturated analogue | protects the skin from SDS-induced damage | high capacity for recovering diminished water-retaining properties of the skin | –
3 | CCCCC/C=C\C/C=C\CCCCCCCC(=O)N[C@@H](CO)[C@H](O)[C@H](O)CCCCCCCCCCCCCC [sample IIIA, N-linoleoylphytosphingosine] | increase in weight (oxidation) followed by decomposition | – | – | – | – | – | – | – | – | – | ca. 80 °C
